Measured values taken from paper PMC11243320, “Tailoring Fibroblast-Activation Protein Targeting for Theranostics: A Comparative Preclinical Evaluation of the ^68Ga- and ^177Lu-Labeled Monomeric and Dimeric Fibroblast-Activation Protein Inhibitors DOTA.SA.FAPi and DOTAGA.(SA.FAPi)2” (Molecules, 2024).

Tested on: CAFs
Test: Internalization studies in CAFs
Assay type: cell-based, human
Conditions: 37 °C
Protocol: For saturation studies, CAFs were incubated with increasing concentrations of the radiotracers (0.1–10 nM). For internalization studies, approximately 2.5 pmol of the radiotracers were added to CAFs followed by incubation for 15, 30, 60, 90, 120, 180 and 240 min for the ^68Ga-labeled or 30, 60, 120, 240 and 360 min for the ^177Lu-labeled radiotracers at 37 °C, 5% CO2. For the externalization studies, approximately 2.5 pmol of the ^177Lu-labeled radiotracers were added to CAFs followed by incubation for 2 h at 37 °C, 5% CO2. Afterward, the amount of the externalized activity from the CAFs was determined at 0, 10, 20, 30, 60, 120, 240, and 1440 min (Supplemental Data).
Saturation Binding Studies […]
for 0.5, 1, 2, 4 and 6 h at 37 °C, 5% CO2 for the 177Lu-labeled tracers. […] The radioactivity of the culture medium, the receptor bound, and the internal-ized fractions were measured in a γ-counter. […]
The radioactivity of the culture medium, the receptor bound , the internalized and the externalized fractions were measured in a γ -counter. The externalized fraction of radioactivity was ex-pressed as the percentage of the total internalized amount. […]

Compound | Total cell associated uptake (% of total applied radioactivity) (4 h) [%] | Total cell associated uptake (% of total applied radioactivity) (6 h) [%]
N#C[C@@H]1CC(F)(F)CN1C(=O)CNC(=O)c1ccnc2ccc(OCCCCNc3c(NCCNC(=O)CN4CCN(CC(=O)[O-])CCN(CC(=O)[O-])CCN(CC(=O)[O-])CC4)c(=O)c3=O)cc12.[68Ga+3] [[^68Ga]Ga-DOTA.SA.FAPi] | 21.9 ± 1.2 | –
N#C[C@@H]1CC(F)(F)CN1C(=O)CNC(=O)c1ccnc2ccc(OCCCCNc3c(NCCNC(=O)CN4CCN(CC(=O)[O-])CCN(CC(=O)[O-])CCN(CC(=O)[O-])CC4)c(=O)c3=O)cc12.[177Lu+3] [[^177Lu]Lu-DOTA.SA.FAPi] | – | 21.1 ± 1.1
